Measurements taken from patent US8652836B2, “Defective ribosomal products in blebs (DRibbles) and methods of use to stimulate an immune response” (Providence Health System, priority 2005, dated 2014).
Square brackets hold non-standard residues; d marks the D form. Peptide text beside a SMILES is read from it. * marks the point of attachment. Nle = CCCC[C@H](N)C(=O)O; Cbz = O=C(OCc1ccccc1)*

Experiments:
F10 melanoma cells = assay: Secretion of DRibbles by tumor cells treated with proteasome inhibitor (microscopy); type: cell-based, mouse; settings: 5 μg/ml, 24 hours; FIG. 1A
Experimental: To prepare tumor-derived DRibbles, one T-150 flask of cultured tumor cells at about 80% confluence (about 30 million cells per flask) were treated for 24 hours with reversible proteasome inhibitor MG132 (5 μg/ml) or ALLN (5 μg/ml) to block proteasome-mediated degradation of ubiquitinated proteins. […] Culture supernatant was collected in a 50 ml conical tube 48 hours later, and whole tumor cells and large cell debris removed by a low speed centrifugation (250 g for 10 minutes) (FIG. 1B). The resulting supernatant was further centrifuged at a high speed (10,000 g for 15 minutes) to pellet DRibbles. The pellets (containing the DRibbles, see FIG. 1C) were washed once by re-suspending in PBS (20 ml) and pelleting at high speed as above. The washed pellets were resuspended in 300 μl PBS (10 μl DRibble=1 million cells) and snap frozen in liquid nitrogen and kept at −80° C. in small aliquots until use.

RMA tumor cells = assay: Priming of gag-specific CD8 T cells by RMA tumor cells, intracellular IFN-γ; type: in vivo, mice; settings: RMA cells treated 5 μM 24 hours
Experimental: Seven days later, spleen cells were restimulated with either irrelevant D^b binding peptide or the dominant epitope of gag in the presence of blocker of ER/Golgi (brefeldin A) for 6 hours. The percentage of CD8 T cells produced intracellular IFN-γ was then determined by intracellular staining and flow cytometry analysis with antibodies against CD3, CD8, and IFN-γ.

293T tumor cells = assay: Fluorescence microscopy of GFP-OVA / GFP-LC3 transfected cells; type: cell-based, human; settings: 1 μM
Experimental: 293T tumor cells were transfected with plasmids encoding Ub-M-GFP-OVA, GFP-LC3 fusion protein, or GFP-LC3 and tdTomato-Ub proteins. Transfected cells were treated with 1 μM Velcade 24 hours later. GFP-OVA or GFP-LC3 fusion proteins were used to visualize the antigens or autophagy membrane in the DRibbles using fluorescence microscopy. Co-tranfection of GFP-LC3 and tdTomato-Ub fusion plasmids was used to visualize accumulation of ubiquitinated DRiPs inside LC3 decorated DRibbles.

[1] = tested on: 293T cells expressing V-GFP-TfR-OVA fusion protein; assay: Cross-presentation of HSP90 inhibitor treated cells; type: cell-based, human; settings: Velcade added to 17-AAD treated cells
Experimental: (§1) 293T tumor cells expressing V-GFP-TfR-OVA were treated as described in Example 2, and used as the source of antigens for cross-presentation in vitro after irradiation (15,000 rad). One million tumor cells were incubated with two million DC for 6 hours before the addition of CFSE labeled naïve T cells from OT-I transgenic mice that recognize peptides derived from OVA protein. The OT-I division as indicated by dilution of CFSE label was used as the readout.
Cross-presentation is analyzed as described in Example 5.

[2] = tested on: 293T cell lines expressing GFP-OVA fusion proteins; assay: Western blot of DRibble lysates; type: cell-based, human
Experimental: Lysates (10 μg) were prepared from DRibbles generated from 293T cell lines expressing different versions of GFP-OVA fusion proteins after Velcade treatment. The lysates were probed with antibodies against GFP, LC3, calrecticulin, HSP90α (cytosolic), and ubiquitin.

[3] = tested on: 293T cells expressing V-GFP-TfR-OVA fusion protein; assay: Western blot of fusion protein after HSP90 inhibitor and Velcade; type: cell-based, human; settings: 1 μM Velcade 6 hours; 10 μM 17-AAD 16 hour
LC3 = assay: Western blot analysis of LC-3 (autophagy marker); type: cell-based, human; settings: 1 μM overnight, 293T cells
Experimental: To confirm whether Velcade induced autophagy, Western blot analysis of LC-3 was performed. LC3 is an autophagy marker; it converts from its LC3-I-nonlipidated form to the PE-conjugated form LC3-II. 293T were treated with 1 μM Velcade overnight and total cell lysates were subjected to Western blot analysis with anti-LC3 polyclonal antibody.

[4] = tested on: human 293T tumor cells expressing V-GFP-TfR-OVA fusion; assay: Western blot of fusion protein with anti-GFP antibody; type: cell-based; settings: for full-length and short fragments of fusion proteins: 10 mM 3-MA, 1 μM Velcade, 10 mM NH4Cl, compared to untreated control cells
Experimental: (§2) The autophagy inhibitor […] (3-MA) and the autophagy inducer rapamycin were used to modulate autophagy and observe their effect on human 293T tumor cells expressing V-GFP-TfR-OVA fusion (a peptide containing mutated ubiquitin, GFP (green fluorescent protein), the transmembrane domain of transferrin receptor and chicken ovalbumin). In addition 10 mM NH4Cl was used to inhibit lysosome mediated protein degradation. Cells expressing V-GFP-TfR-OVA were either untreated, treated with 10 mM 3-MA for 24 hours, treated with 10 mM 3-MA and 1 μM Velcade for 24 hours, 50 nM rapamycin for 24 hours, 50 nM rapamycin and 1 μM Velcade for 24 hours, 10 mM NH4Cl for 24 hours, or with 1 μM Velcade and 10 mM NH4Cl for 24 hours. Cell lysates were prepared by resuspending pelleted cells in SDS containing sample lysis buffer and subjected to western blot analysis with anti-GFP antibody.

[5] = tested on: 293T tumor cells expressing V-GFP-TfR-OVA; assay: In vitro cross-presentation of treated tumor cells by DC to OT-I T cells (CFSE dilution); type: cell-based, human; settings: tumor cells treated as in Example 2, irradiated; FIG. 3
Experimental: as §2, §1

[6] = under refrigeration; cited from earlier work
[7] = oral administration; cited from earlier work

## CCCC[C@@H](C=O)NC(=O)[C@H](CC(C)C)NC(=O)[C@H](CC(C)C)NC(C)=O [ALLN, N-Acetyl-Leu-Leu-norleucinal] (Ac-Leu-Leu-[Nle]-aldehyde)
F10 melanoma cells
  formation of prenuclear vacuoles and secretion of DRibbles: induced formation of prenuclear vacuoles and secretion of DRiPs containing blebs (DRibbles)

## CC(C)C[C@@H](C=O)NC(=O)[C@H](CC(C)C)NC(=O)[C@H](CC(C)C)NC(=O)OCc1ccccc1 [MG-132, carbobenzyloxy-L-leucyl-L-leucyl-L-leucinal] (Cbz-Leu-Leu-Leu-aldehyde)
RMA tumor cells; background
  percentage of IFN-γ-producing CD8 T cells, background: 0.29%
RMA tumor cells; spleen cells seven days later restimulated with dominant epitope of gag
  percentage of IFN-γ-producing CD8 T cells: 1.74%

## CC(C)C[C@H](NC(=O)[C@H](Cc1ccccc1)NC(=O)c1cnccn1)B(O)O [Velcade, N-pyrazinecarbonyl-L-phenylalanine-L-leucineboronic acid]
293T tumor cells
  formation of punctate structures: led to formation of cell-associated punctate positive for GFP-OVA or GFP-LC3
[1]
  DRiPs and cross-presentation: rescued DRiPs but not cross-presentation
[2]
  GFP-OVA fusion protein in DRibbles: resulted in large amount GFP-OVA fusion protein in the DRibbles
[3]
  short-fragments of GFP-TfR-OVA fusion proteins: dramatically increased
LC3
  autophagy induction (LC3-I and LC3-II): induced autophagy in 293T cells
[4]; 1 μM Velcade in the presence of 50 nM rapamycin, 24 hours
  amount of short fragments: slightly increased the amount of short fragments

## Cl.N [NH4Cl]
[4]; 24 hours
  full-length and short fragments of fusion proteins: even greater stabilizing effect of shorter fragments
[4]; as restated with the cross-presentation results
  antigen / protein level detected by Western blot: increased protein level
[5]
  cross-presentation (OT-I division, CFSE dilution): moderate increase of cross-presentation

## O.O=P1(N(CCCl)CCCl)NCCCO1 (stereo not shown) [Cyclophosphamide, 2-[bis(2-chloroethyl)amino]tetrahydro-2H-1,3,2 oxazaphosphorine 2-oxide monohydrate]
[6]
  stability of reconstituted solution: six
[7]
  bioavailability: greater than 75%

## Cn1cnc(=N)c2ncn([C@@H]3O[C@H](CO)[C@@H](O)[C@H]3O)c21 [3-MA, 3-methyladenosine]
[4]; 24 hours
  full-length and short fragments of fusion proteins: both full-length and short fragments of fusion proteins were increased
[5]
  cross-presentation (OT-I division, CFSE dilution): severely curtailed
